Data reported in patent publication US12263181B2, “Phospholipid compositions” (MACHAVERT PHARMACEUTICALS LLC, priority 2016, dated 2025).

Experiments:
ABL1 M351T = molecular target: T1, ABL1 M351T (Homo sapiens, UniProt P00519, M351T); assay: LANTHASCREEN Eu Kinase Binding Assay; conditions: 10 μM solutions, two independent measurements
T1 construct: purchased Life Technologies
Protocol: (§1) Measurement of inhibition of various kinases was also performed by binding a tracer to a kinase and the addition of Europium labeled anti-tag antibodies. When bound to the same kinase, the tracer and Europium interact through FRET and fluoresce. Binding of the tracer and antibody to a kinase results in a high degree of FRET, whereas displacement of the tracer with a kinase inhibitor results in a loss of FRET. This method of measurement removes the cleavage step necessary in the above FRET measurement.
(§2) The kinase inhibitory activity of various 10 μM solutions of various fractions was measured (LANTHASCREEN Eu Kinase Binding Assay Profiling Service available from Life Technologies). In these measurements, greater percent displacement indicates greater kinase inhibition. […] The average % displacement is representative of two independent measurements.

TTK = molecular target: T2, TTK (Homo sapiens, UniProt P33981); assay: LANTHASCREEN Eu Kinase Binding Assay; conditions: 10 μM solutions, two independent measurements
T2 construct: purchased Life Technologies
T2 sequence (P33981 1-857): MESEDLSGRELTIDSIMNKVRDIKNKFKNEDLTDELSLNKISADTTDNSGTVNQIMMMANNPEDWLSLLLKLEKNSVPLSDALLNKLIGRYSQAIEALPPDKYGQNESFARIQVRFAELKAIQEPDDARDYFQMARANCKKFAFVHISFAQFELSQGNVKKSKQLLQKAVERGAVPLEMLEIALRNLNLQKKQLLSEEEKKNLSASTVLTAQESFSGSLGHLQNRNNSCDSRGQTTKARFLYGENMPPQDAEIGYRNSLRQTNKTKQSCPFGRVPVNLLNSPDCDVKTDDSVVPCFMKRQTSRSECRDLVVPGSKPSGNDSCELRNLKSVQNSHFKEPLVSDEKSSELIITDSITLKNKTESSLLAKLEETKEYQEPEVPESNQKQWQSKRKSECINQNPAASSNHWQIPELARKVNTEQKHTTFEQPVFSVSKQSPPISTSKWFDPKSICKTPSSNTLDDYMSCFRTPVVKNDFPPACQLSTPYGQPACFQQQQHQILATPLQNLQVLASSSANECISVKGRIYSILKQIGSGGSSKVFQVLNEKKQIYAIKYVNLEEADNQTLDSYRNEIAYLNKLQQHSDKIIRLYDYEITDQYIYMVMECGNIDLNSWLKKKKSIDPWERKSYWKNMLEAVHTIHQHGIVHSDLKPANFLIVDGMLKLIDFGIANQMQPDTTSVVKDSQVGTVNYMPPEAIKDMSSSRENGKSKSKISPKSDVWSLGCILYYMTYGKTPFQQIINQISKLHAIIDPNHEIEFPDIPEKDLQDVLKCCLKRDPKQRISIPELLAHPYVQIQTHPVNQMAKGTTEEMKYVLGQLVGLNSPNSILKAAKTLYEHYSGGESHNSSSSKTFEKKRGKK
Protocol: as §1, §2

KIT D816H = molecular target: T3, KIT D816H (Homo sapiens, UniProt P10721, D816H); assay: LANTHASCREEN Eu Kinase Binding Assay; conditions: 10 μM solutions, two independent measurements
T3 construct: purchased Life Technologies
T3 sequence (P10721 26-976 D816H): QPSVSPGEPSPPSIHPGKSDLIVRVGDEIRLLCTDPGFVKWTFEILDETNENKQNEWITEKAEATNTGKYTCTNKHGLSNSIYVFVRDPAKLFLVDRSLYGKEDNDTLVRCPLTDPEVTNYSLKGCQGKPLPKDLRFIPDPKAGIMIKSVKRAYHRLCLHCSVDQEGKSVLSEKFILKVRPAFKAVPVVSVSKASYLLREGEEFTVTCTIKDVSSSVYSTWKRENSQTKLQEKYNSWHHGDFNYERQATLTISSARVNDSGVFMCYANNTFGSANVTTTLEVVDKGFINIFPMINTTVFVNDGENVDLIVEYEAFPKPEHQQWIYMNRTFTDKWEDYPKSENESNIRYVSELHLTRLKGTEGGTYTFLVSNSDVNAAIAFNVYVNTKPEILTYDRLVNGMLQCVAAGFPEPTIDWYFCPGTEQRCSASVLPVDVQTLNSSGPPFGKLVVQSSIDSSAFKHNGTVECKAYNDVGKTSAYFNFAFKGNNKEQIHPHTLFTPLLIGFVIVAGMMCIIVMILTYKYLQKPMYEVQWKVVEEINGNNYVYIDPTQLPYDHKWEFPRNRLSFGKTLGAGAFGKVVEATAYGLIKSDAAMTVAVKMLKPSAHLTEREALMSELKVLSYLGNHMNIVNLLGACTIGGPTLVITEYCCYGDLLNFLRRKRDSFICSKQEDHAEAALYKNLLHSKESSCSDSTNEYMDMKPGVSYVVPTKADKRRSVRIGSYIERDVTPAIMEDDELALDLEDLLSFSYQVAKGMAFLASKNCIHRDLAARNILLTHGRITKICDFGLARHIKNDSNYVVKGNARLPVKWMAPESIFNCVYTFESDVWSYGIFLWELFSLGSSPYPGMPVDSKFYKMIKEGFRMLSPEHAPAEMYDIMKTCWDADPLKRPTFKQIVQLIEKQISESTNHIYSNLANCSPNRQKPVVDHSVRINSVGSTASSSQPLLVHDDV
Protocol: as §1, §2

KIT N822K = molecular target: T4, KIT N822K (Homo sapiens, UniProt P10721, N822K); assay: LANTHASCREEN Eu Kinase Binding Assay; conditions: 10 μM solutions, two independent measurements
T4 construct: purchased Life Technologies
T4 sequence (P10721 26-976 N822K): as the sequence (P10721 26-976 D816H) above, with H791D, N797K counted along it
Protocol: as §1, §2

ALK C1156Y = molecular target: T5, ALK C1156Y (Homo sapiens, UniProt Q9UM73, C1156Y); assay: LANTHASCREEN Eu Kinase Binding Assay; conditions: 10 μM solutions, two independent measurements
T5 construct: purchased Life Technologies
Protocol: as §1, §2

WEE1 = molecular target: T6, WEE1 (Homo sapiens, UniProt P30291); assay: LANTHASCREEN Eu Kinase Binding Assay; conditions: 10 μM solutions, two independent measurements
T6 construct: purchased Life Technologies
T6 sequence (P30291 whole entry): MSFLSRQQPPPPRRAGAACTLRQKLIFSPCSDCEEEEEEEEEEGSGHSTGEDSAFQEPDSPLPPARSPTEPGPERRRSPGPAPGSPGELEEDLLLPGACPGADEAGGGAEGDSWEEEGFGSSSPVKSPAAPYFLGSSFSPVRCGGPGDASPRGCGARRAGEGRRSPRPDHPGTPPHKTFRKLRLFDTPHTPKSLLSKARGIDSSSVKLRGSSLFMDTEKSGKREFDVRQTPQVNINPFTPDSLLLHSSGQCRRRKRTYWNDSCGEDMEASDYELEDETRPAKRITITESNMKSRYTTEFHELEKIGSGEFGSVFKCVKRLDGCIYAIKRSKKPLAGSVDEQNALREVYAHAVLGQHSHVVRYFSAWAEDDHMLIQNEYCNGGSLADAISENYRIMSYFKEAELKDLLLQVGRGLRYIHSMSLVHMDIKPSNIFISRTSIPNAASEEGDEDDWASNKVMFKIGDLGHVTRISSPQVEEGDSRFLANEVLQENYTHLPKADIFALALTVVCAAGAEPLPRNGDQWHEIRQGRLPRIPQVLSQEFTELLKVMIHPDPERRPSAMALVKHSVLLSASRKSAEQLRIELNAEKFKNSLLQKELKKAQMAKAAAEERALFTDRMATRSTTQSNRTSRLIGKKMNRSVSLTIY
Protocol: as §1, §2

KIT Y823D = molecular target: T7, KIT Y823D (Homo sapiens, UniProt P10721, Y823D); assay: LANTHASCREEN Eu Kinase Binding Assay; conditions: 10 μM solutions, two independent measurements
T7 construct: purchased Life Technologies
T7 sequence (P10721 26-976 Y823D): as the sequence (P10721 26-976 D816H) above, with H791D, Y798D counted along it
Protocol: as §1, §2

EGFR (ErbB1) d746-750 = molecular target: T8, EGFR (ErbB1) d746-750 (Homo sapiens, UniProt P00533, DEL746-750); assay: LANTHASCREEN Eu Kinase Binding Assay; conditions: 10 μM solutions, two independent measurements
T8 construct: purchased Life Technologies
T8 sequence (P00533 with tags, fused parts or gaps DEL746-750 limits assumed): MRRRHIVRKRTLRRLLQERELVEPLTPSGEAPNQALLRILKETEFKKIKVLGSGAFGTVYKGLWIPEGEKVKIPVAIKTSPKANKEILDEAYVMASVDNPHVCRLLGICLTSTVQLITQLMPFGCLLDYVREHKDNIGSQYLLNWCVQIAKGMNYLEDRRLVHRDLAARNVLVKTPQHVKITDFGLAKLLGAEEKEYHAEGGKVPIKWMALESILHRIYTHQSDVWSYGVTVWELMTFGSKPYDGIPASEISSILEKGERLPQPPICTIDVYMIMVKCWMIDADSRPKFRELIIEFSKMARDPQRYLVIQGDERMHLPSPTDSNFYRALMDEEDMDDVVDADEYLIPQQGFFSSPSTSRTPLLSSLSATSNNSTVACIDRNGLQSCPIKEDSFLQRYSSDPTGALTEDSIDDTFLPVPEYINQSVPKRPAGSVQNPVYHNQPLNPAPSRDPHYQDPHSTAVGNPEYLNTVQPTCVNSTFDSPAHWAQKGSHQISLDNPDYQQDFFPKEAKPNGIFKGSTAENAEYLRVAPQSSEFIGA
Protocol: as §1, §2

[1] = tested on: human pancreatic carcinoma cell line (Capan-2); assay: In vivo tumor growth inhibition, Capan-2 xenograft in nude mice; conditions: oral, 0.1 mL of a 30% (w/w) solution in sunflower oil once a day for 42 days
Protocol: In vivo measurements of tumor growth inhibition in mice were conducted to determine efficacy of BAP(+), BAP(−), and fractions thereof. A human pancreatic carcinoma cell line (Capan-2 available from European Collection of Cell Cultures, Salisbury UK) was cultivated at 37° C. in a humidified 5% CO2/95% air atmosphere using high glucose D-MEM medium supplemented with 20% fetal bovine serum, 2% penicillin/streptomycin and 1.25% L-glutamine. Before application, cells were harvested by trypsinisation for 30 minutes. Harvested Capan-2 cells were administered subcutaneously to each mouse as 1×10^7 cells in a mixture with a basement membrane preparation (BD MATRIGEL, available from I.T.A.-Interact, Prague CZ). Administration was in the rear right flank of Hsd:athymic nude-Fox n1nu mice (available from Anlab, Prague CZ). […]
Table 12 gives the percentage of tumor weight growth inhibition (% WGI) as compared to the control for various BAP mixtures including BAP(−), BAP(+), pooled fractions F1-F4, F5, a fraction comprising a pooled collection of the F5 sub-fractions enriched in more PCs comprising saturated fatty acids acyl residues (“F5A”), a fraction which comprising a pooled collection of F5 sub-fractions enriched in more PCs comprising unsaturated fatty acid acyl residues (“F5B”), and a fraction of BAP(+) possibly enriched in LPC's (“F5C”). Glycerophosphocholine (GPC) was also evaluated. […]

various kinases [2] = molecular target: T9, various kinases (Homo sapiens, UniProt P41279); assay: FRET-peptide kinase inhibition (SELECTSCREEN Kinase Profiling Service); format: biochemical; conditions: kinase MAP3K8 (COT); 10 μM solution; ATP concentration of 100 μM
T9 construct: purchased Life Technologies
T9 sequence (P41279 whole entry): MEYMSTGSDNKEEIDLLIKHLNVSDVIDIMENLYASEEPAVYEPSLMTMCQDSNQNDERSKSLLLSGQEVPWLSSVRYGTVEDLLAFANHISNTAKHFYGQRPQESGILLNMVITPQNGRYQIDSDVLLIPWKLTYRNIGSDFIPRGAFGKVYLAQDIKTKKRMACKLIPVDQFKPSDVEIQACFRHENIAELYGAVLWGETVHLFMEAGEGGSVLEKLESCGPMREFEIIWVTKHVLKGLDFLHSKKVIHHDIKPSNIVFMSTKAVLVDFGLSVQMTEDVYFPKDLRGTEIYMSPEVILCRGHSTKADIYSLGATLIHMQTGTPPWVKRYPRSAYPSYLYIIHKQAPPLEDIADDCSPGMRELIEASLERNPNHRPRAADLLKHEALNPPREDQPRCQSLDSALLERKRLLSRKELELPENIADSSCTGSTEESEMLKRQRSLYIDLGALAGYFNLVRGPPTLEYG
Protocol: (§3) Inhibition of various kinases was measured using fluorescence resonance energy transfer (FRET) analysis. Briefly, a kinase is used to transfer the γ-phosphate of ATP to a single tyrosine, serine, or threonine residue in a synthetic FRET-peptide in the presence of each tested fraction. A kinase inhibitor will prevent phosphorylation. FRET-peptides comprise a donor fluorophore and an acceptor fluorophore, where the acceptor fluorophore will only undergo fluorescence from the excitation wavelength of the donor fluorophore due to resonant energy transfer through the peptide. A development reagent is used to cleave the un-phosphorylated FRET-peptides. An uncleaved FRET-peptide (i.e., phosphorylated peptide) will therefore undergo measureable FRET of both acceptor and donor and be indicative of kinase inhibition. […] Because phosphorylation of FRET-peptides suppresses cleavage by the development reagent, calculation of the ratio of donor emission to acceptor emission after excitation of the donor fluorophore at approximately 400 nm is used to quantitate reaction progress. Low ratios indicate the FRET-peptide is phosphorylated (i.e., little kinase inhibition) and high ratios […] (i.e., kinase inhibition). The percent phosphorylation can therefore be calculated from the emission ratio based on controls for the maximum and minimum phosphorylation. The percent inhibition can be calculated based on the percent phosphorylation of a sample with each fraction as compared to the percent phosphorylation without each fraction.
(§4) The kinase inhibitory activity of various 10 μM solutions of various fractions was measured using the SELECTSCREEN Kinase Profiling Service available from Life Technologies. Unless otherwise indicated, the concentration of ATP in each well is the Michaelis-Menten constant (Km value-the concentration of ATP when the phosphorylation reaction velocity is equal half of the maximal velocity for the reaction). […] Z′ is a measure of statistical effect size to assess the quality of the assay. Z′>0.5 is indicative measurement separated from the background and a reliable assay result. The average % inhibition is representative of two independent measurements.

SPHK1 kinase = molecular target: T10, SPHK1 kinase (Homo sapiens, UniProt Q9NYA1); assay: as above; format: biochemical; conditions: 10 μM solution, ATP at Km
T10 construct: purchased Life Technologies
T10 sequence (Q9NYA1 whole entry): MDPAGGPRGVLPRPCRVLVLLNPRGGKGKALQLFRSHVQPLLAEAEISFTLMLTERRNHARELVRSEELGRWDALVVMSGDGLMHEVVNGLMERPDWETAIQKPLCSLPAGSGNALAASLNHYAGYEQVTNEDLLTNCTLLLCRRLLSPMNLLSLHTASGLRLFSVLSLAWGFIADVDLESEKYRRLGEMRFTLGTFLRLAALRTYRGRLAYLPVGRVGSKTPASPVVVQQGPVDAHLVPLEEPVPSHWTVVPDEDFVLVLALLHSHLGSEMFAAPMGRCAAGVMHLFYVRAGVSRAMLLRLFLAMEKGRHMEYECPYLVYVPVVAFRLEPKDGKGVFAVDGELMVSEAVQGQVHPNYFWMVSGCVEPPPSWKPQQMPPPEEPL
Protocol: as §3, §4

various kinases [3] = molecular target: T11, various kinases (Homo sapiens, UniProt Q8TF76); assay: as above; format: biochemical; conditions: kinase GSG2 (Haspin); 10 μM solution; ATP at Km
T11 construct: purchased Life Technologies
T11 sequence (Q8TF76 1-798): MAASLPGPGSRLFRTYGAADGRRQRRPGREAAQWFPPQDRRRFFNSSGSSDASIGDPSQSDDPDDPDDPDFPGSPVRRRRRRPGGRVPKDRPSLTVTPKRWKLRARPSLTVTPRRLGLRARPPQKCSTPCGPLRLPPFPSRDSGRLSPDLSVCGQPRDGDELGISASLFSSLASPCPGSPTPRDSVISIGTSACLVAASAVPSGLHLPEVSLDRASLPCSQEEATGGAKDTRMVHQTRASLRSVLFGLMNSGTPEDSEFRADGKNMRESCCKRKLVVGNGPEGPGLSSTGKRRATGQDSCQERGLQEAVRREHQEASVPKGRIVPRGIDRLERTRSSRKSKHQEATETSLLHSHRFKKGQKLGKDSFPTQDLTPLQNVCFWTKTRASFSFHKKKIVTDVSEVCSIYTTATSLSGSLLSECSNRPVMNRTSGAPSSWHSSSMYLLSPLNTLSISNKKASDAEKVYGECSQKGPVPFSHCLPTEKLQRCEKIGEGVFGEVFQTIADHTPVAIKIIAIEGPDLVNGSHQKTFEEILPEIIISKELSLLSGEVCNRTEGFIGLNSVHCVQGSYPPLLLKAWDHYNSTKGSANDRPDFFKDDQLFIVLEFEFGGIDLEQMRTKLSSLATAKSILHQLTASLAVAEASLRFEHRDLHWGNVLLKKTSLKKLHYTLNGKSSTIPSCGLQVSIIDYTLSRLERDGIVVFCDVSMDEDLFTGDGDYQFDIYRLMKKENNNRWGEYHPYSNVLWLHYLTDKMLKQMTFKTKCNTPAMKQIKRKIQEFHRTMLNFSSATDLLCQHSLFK
Protocol: as §3, §4

various kinases [4] = molecular target: T12, various kinases (Homo sapiens, UniProt P48736); assay: as above; format: biochemical; conditions: kinase PIK3CG (p110 gamma); 10 μM solution; ATP at Km
T12 construct: purchased Life Technologies
T12 sequence (P48736 whole entry): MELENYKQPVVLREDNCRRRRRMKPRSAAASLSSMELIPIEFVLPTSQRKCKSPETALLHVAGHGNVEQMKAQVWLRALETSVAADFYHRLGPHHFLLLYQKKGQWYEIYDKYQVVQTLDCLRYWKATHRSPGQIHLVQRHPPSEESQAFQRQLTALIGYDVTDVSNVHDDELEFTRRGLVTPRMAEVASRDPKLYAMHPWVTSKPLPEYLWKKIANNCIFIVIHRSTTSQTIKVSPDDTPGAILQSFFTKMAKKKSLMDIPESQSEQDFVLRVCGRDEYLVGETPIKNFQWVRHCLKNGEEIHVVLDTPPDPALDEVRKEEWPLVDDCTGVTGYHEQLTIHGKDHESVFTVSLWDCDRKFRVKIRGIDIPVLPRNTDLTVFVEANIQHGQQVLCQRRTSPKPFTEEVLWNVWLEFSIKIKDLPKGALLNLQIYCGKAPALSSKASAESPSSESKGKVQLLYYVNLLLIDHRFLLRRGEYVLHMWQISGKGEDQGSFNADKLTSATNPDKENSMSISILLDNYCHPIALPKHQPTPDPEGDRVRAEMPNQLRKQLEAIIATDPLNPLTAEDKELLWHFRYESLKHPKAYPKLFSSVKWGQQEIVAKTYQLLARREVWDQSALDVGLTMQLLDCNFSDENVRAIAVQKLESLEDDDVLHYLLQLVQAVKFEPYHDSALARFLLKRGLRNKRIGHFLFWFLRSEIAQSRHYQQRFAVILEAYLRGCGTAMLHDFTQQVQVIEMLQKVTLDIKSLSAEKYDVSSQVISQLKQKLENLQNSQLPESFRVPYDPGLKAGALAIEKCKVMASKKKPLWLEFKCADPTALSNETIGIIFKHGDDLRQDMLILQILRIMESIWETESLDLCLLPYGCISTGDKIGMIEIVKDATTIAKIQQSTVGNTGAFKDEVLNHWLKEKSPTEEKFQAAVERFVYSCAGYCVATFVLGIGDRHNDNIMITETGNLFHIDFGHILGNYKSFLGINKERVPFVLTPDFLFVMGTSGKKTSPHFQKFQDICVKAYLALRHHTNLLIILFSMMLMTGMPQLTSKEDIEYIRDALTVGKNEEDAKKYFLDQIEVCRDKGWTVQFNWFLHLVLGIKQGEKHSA
Protocol: as §3, §4

various kinases [5] = molecular target: T13, various kinases (Homo sapiens, UniProt O14965); assay: as above; format: biochemical; conditions: kinase AURKA (Aurora A); 10 μM solution; ATP at Km
T13 construct: purchased Life Technologies
T13 sequence (O14965 1-403): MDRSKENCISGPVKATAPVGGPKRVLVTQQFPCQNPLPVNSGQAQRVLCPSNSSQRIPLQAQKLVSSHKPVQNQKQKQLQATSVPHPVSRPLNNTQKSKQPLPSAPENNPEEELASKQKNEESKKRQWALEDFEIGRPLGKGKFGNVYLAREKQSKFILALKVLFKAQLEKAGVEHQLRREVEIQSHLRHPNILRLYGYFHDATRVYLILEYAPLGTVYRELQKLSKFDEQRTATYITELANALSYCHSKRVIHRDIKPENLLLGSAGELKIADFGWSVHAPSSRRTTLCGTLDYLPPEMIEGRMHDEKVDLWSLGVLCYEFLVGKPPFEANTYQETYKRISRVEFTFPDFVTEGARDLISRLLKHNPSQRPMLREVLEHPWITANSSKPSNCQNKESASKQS
Protocol: as §3, §4

various kinases [6] = molecular target: T14, various kinases (Homo sapiens, UniProt Q96GD4); assay: as above; format: biochemical; conditions: kinase AURKB (Aurora B); 10 μM solution; ATP at Km
T14 construct: purchased Life Technologies
T14 sequence (Q96GD4 whole entry): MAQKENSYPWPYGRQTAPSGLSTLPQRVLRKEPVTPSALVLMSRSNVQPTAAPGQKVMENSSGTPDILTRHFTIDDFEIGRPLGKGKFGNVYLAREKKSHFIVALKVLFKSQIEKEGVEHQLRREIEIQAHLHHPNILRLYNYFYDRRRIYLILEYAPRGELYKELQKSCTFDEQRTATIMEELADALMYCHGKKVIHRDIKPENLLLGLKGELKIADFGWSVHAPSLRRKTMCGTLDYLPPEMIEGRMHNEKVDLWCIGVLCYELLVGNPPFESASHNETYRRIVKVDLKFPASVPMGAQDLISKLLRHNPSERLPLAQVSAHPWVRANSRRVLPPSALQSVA
Protocol: as §3, §4

mTOR kinase = molecular target: T15, mTOR kinase (Homo sapiens, UniProt P42345); assay: as above; format: biochemical; conditions: kinase FRAP1 (mTOR); 10 μM solution; ATP at Km
T15 construct: purchased Life Technologies
Protocol: as §3, §4

Average % Displacement (ABL1 M351T): 4%
Average % Displacement (TTK): 24%
Average % Displacement (KIT D816H): 1%
Average % Displacement (KIT N822K): −1%
Average % Displacement (ALK C1156Y): 4%
Average % Displacement (WEE1): 5%
Average % Displacement (KIT Y823D): 2%
Average % Displacement (EGFR (ErbB1) d746-750): −1%
Average % Inhibition (various kinases [2]): 7%
Average % Inhibition (SPHK1 kinase): −5%
Average % Inhibition (various kinases [3]): 14%
Average % Inhibition (various kinases [4]): 2%
Average % Inhibition (various kinases [5]): 22%
Average % Inhibition (various kinases [6]): 13%
Average % Inhibition (mTOR kinase): −1%
Structure (SMILES): C[N+](C)(C)CCOP(=O)([O-])OC[C@H](O)CO [GPC, glycerophosphocholine]
% WGI (percentage of tumor weight growth inhibition as compared to the control) [1]: −41.9%
